Data set [1] deals with plasma protein. Conditions: cited from earlier work.
Data set [2] in a line: Plasma protein binding (PPB) by equilibrium dialysis. It counts as in vitro ADME, Sprague Dawley rat. To be noted: Sprague Dawley, rat, plasma (Li-Heparin), equilibrium dialysis of PBS against dye-plasma stock, 37°C, UV absorption. The text has this: (§1) The interaction between fluorescent dyes and plasma proteins is particularly important as it affects the capability of the dyes as GRF agents in the following aspects: bio-distribution and clearance pathways as well as the rate of excretion in vivo.[15] […] ABCACY and AACACY display 54.5% and 60% PPB, respectively. […] Additionally, PPB is not only dependent on the dye hydrophilicity, but is also related to the molecular charge number and distribution. Since albumin is alkalotic, acidic agents will preferentially bind to albumin, then to lipoprotein after albumin becomes saturated. Basic agents will bind to the acidic alpha-1 acid glycoprotein.[17] Thus, anionic and cationic compounds are more inclined to bind to proteins than zwitterionic compounds. Therefore, we will mainly focus on zwitterionic compounds in the following parts.
5. […]
(§2) PPB measurements were performed by equilibrium dialysis of PBS against dye-protein stock solution (or control stock solution) using a two-chamber dialysis set-up. After 24 hours the absorption of each of the dyes or agents in PBS and plasma were determined in three independent measurements by both absorption spectroscopy and fluorescence spectroscopy in a microplate reader. The concentrations of each of the dyes or agents were calculated on the basis of the corresponding molar absorption coefficients. […] PPB in percent [%] was determined by averaging three independent measurements and following the equation of Lambert Beer law: […]
(§3) ABZWCY-HPβCD (1 mg/mL in PBS), SD rat plasma (50% in PBS), ABZWCY-HPβCD (1 mg/mL) mixed with SD rat plasma (50% in PBS) were prepared and filtered through a sterile 0.22 μm filter before analysis. […] The measurements were carried out in quadratic cells and analyzed the scattered light at an angle of 90° at a controlled temperature (25 °C). […] The apparent hydrodynamic radius was calculated according to the Stokes-Einstein […]
On the technique in general: Equilibrium dialysis compares concentrations on both sides of a semipermeable membrane.

In data set [3] the test system is Sprague Dawley rat plasma. The description is as above. It counts as in vitro ADME. Conditions: equilibrium dialysis of PBS against dye-plasma stock, 37°C, 24 hours, UV absorption.
Excerpt: as §1
5. […]
as §2, §3

Data set [4] can be described thus: Transcutaneous measurement of elimination kinetics in healthy rats. It counts as in vivo, Sprague Dawley rats. To be noted: for Transcutaneous elimination (clearance) curve, in words: i.v. injection. The protocol:
(§4) The principles and methods of the transcutaneous technique are described in Fig. S10. ^† Firstly, as a control, IRDye800CW was chosen to be injected intravenously into rats and its elimination curves were measured transcutaneously. […] A long retention time of IRDye800CW in vivo was attributed to its higher PPB (41%) and negative charge feature, leading to skin accumulation and slow renal excretion. […] To assess whether the anionic agent ABANCY-HPβCD is reabsorbed or secreted by organic anion transporter (OAT) proteins in the kidney tubules, probenecid, an inhibitor of OAT proteins,[18] was administered (30 min prior to injection of ABANCY-HPβCD) to block tubular reabsorption and the secretion pathway, then, elimination curves were measured for the same rats. […] We also measured the cationic HPβCD based agent in the same manner and the results are similar to those of anionic HPβCD based agents. Next, the free dye ABZWCY was injected intravenously and its elimination curves were also recorded transcutaneously. […] This is in agreement with their similar PPB values (∼20%). To determine whether ABZWCY has tubular reabsorption or secretion in addition to filtration, probenecid was administered to block tubular reabsorption and the secretion pathway. […]
(§5) 8. Principle and methods for transcutaneous measurements of kidney function The transcutaneous assessment of renal function is based on the measurement of the fluorescence signal of a marker through the skin. A miniaturized transcutaneous device is comprised of two light emitting diodes (LEDs) and one photodiode (Figure S10a and 10b). The LEDs can blink every few seconds to excite a fluorescent marker using excitation wavelength of 700 nm. The fluorescent signal will be recorded by detecting the emission intensity of a fluorescent marker at 790 nm. Data are stored in the device and can be read out after measurement.[6] The clearance half-life of fluorescent agents was calculated by software, which was developed by the Institute of Medical Technology of the University of Heidelberg.[7] For this a 3-exponential function was fitted to the measured elimination curve, the peak of the curve was supposed to be 100%. Also a 1-exponential function was applied from 50% to 15% of the peak […]
(§6) Figure. S10. (a) Transcutaneous device and battery used for the transcutaneous measurement, the photodiodes and LEDs in the device. (b) A schematic overview of the excitation and emission light between a transcutaneous device and fluorescent agents in capillary vessel after injection. (c-g) The fixation procedures of a transcutaneous device on the skin and measurements in a […]
(§7) Healthy Sprague Dawley rats (Body weight: 250-300 g, 8-10 weeks) were anesthetized for a short period with Isoflurane (Forene®, AbbVie, Illinois, USA; Dosage: 5 %; Flow(O2): 5 L/min) in order to fix the transcutaneous device on the back of rats. The back of the animals was depilated with an electric shaver (Figure 10c-g). After a baseline measurement for around 5 min, a fluorescent agent in saline (DeltaSelect, GmbH, Rimbach, Germany) was injected as a bolus by tail vein injection. […] The devices were removed and the data were read out after 120 min of transcutaneous measurement. The clearance half-life of fluorescent agents was calculated by software. […]

Data set [5] has as its system organic anion transporter (OAT) proteins. The data set is described as above. It counts as in vivo, Sprague Dawley rats. To be noted: Sprague Dawley, rat, skin (transcutaneous fluorescence signal), ip; healthy rats, 50 mg/kg probenecid i.p. 30 min prior to injection, transcutaneous; read-out: T 1/2 with probenecid (clearance half-life). The method, then: as §4, §5, §6, §7

A short description of data set [6]: Urinary recovery of injected dose (metabolic cages). It counts as in vivo, Sprague Dawley rats. The method, then: With this in mind, we investigated the recoveries of injected doses using in vivo experiments with metabolic cages. High urinary recoveries were determined for the free dye ABZWCY and its mixture with HPβCD (99.4 ± 4.8% and 96.5 ± 5.8%, respectively, Fig. 4 and Tables 2 and S6 ^†). Similar tendencies of urinary recoveries of ABZWCY-HPβCD and AAZWCY-HPβCD with values of 97 ± 3.9% and 103.3 ± 4.2%, respectively, were also observed (Fig. 4, and Tables 2 and S7 ^†). Indeed, urinary recoveries of the given dose were almost completed at 9 h post-injection for ABZWCY-HPβCD and AAZWCY-HPβCD, which is faster than the free dye ABZWCY and in agreement with their shorter clearance half-life.
All experiments were conducted in accordance with the German Animal Protection Law and approved by the local authority (Regierungspräsidium Nordbaden, Karlsruhe Germany in agreement with EU guideline 2010/63/EU). […]
10. Urinary recovery of injected dose in urine studies
Recovery of the injected dose in urine studies were conducted in conscious, healthy Sprague Dawley rats (Body weight: 250-300 g). The corresponding test agents with corresponding dosage (ABZWCY: 2.5 mg/kg, ABZWCY mixed with HPβCD: 2.5 mg/kg mixed with 22.5 mg/kg (HPβCD), ABZWCY-HPβCD and AAZWCY-HPβCD: 50 mg/kg) were administered by tail vein injection. Urine was collected using metabolic cages in intervals of 1, 2, 3, 6, 9, 24 h after intravenous injection of agents into rats. The samples were stored at -20°C until they were analyzed. The urine samples were centrifuged for 8 min at 13000 ×g and then filtered by 0.22 μm syringe filter. A series of working solution of each agent with concentrations between 0.02 mg/mL and 2 mg/mL were prepared. Appropriate volumes of the working solutions were added to blank urine and fluorescent intensity of those mixtures were measured in order to obtain an external calibration curve. Quantification of each of the agents in urine at each time point was performed via HPLC analysis and fluorescence intensity detection. The concentration in urine at each time point was calculated based on the external calibration standards curve between fluorescence intensity and the concentration of each of the agents.
Considering biological components within urine may interfere with the fluorescent intensity of agents, the fluorescent intensity of agent were tested to study whether there is difference in urine and PBS, the emission intensity and calibration curve are compared (Figure S11). The results […]
This slightly difference can explained the urinary recoveries have some trial a little over 100% (Table S6 and S7), which can be found in other literatures studies. […]

SMILES strings stand for the structures. Values joined by “and” are separate entries in the source; they are usually repeats but may differ in a detail not shown here. Equal values may be shown once. Read-outs that look alike come from different tables or passages of the source.

With `CC1(C)C(/C=C/C=C/C=C/C=C2\N(CCCCS(=O)(=O)O)c3ccc4ccccc4c3C2(C)C)=[N+](CCCCS(=O)(=O)[O-])c2ccc3ccccc3c21` [ICG, indocyanine green], the PPB in data set [1] was 99%.
The term fraction unbound denotes free concentration divided by total concentration. Lower therefore signals extensive binding. In data set [2], `CC1(C)C(/C=C/C2=C(Nc3ccc(CCN=[N+]=[N-])cc3)C(=C/C=C3/N(CCC[N+](C)(C)C)c4ccc(S(=O)(=O)O)cc4C3(C)C)/CCC2)=[N+](CCC[N+](C)(C)C)c2ccc(S(=O)(=O)O)cc21` [AAZWCY] showed a fraction unbound at 24 h, 0.2 mg/mL of 0.843.
For `CNC(=O)c1c(I)c(NC(C)=O)c(I)c(C(=O)O)c1I` [iothalamate], in data set [1] ('gold standard' renal function agent), the PPB is on record as 9.5%.
`CC1(C)C(/C=C/C2=C(Nc3ccc(CCC(=O)O)cc3)C(=C/C=C3/N(CCC[N+](C)(C)C)c4ccc(S(=O)(=O)O)cc4C3(C)C)/CCC2)=[N+](CCC[N+](C)(C)C)c2ccc(S(=O)(=O)O)cc21` [ABZWCY] showed a fraction unbound at 24 h, 0.2 mg/mL in data set [2] of roughly 0.8. The same compound yielded a PPB in data set [3] of 19%. Also, the half-life in data set [4] (Sprague Dawley, rat, skin (transcutaneous fluorescence signal), iv, 2.5 mg/kg, healthy rats 8-10 weeks, i.v. bolus, transcutaneous measurement, read-out: T 1/2 without probenecid (clearance half-life)) came to 52.6 ± 8.8 min; in data set [5], 48.7 ± 5.4 min. Moreover, the “Tubular reabsorption or secretion in the kidneys (from probenecid effect)” value in data set [4] (healthy rats, half-life with versus without probenecid) is “tubular reabsorption or secretion is a minor factor”. For the same compound, the “Transcutaneous elimination (clearance) curve, in words” value in data set [4] (healthy rats) was “did not return to background levels at 2 h post-injection”. In addition, the dose excreted in data set [6] (Sprague Dawley, rat, urine, iv, 2.5 mg/kg, healthy rats, i.v., mean ± SD, n = 3, read-out: Urinary recovery in 24 h) turned out to be 99.4 ± 4.8%. This compound also came in with a dose excreted at 1 h in data set [6] (Sprague Dawley, rat, urine, iv, 2.5 mg/kg, individual rats, cumulative, time 1 h after i.v. injection) of 46.7%. Also, the dose excreted at 2 h in data set [6] (Sprague Dawley, rat, urine, iv, 2.5 mg/kg, individual rats, cumulative, time 2 h after i.v. injection) amounted to 65%. The same compound yielded a dose excreted at 6 h in data set [6] (Sprague Dawley, rat, urine, iv, 2.5 mg/kg, individual rats, cumulative, time 6 h after i.v. injection) of 87.2%. The dose excreted at 9 h in data set [6] (Sprague Dawley, rat, urine, iv, 2.5 mg/kg, individual rats, cumulative, time 9 h after i.v. injection) was found to be 96.9%. Moreover, the dose excreted at 24 h in data set [6] (Sprague Dawley, rat, urine, iv, 2.5 mg/kg, individual rats, cumulative, time 24 h after i.v. injection) came to 98.3%. Further, the “Urinary recovery at 1 h” value in data set [6] (individual rats, cumulative, time 1 h after i.v. injection) is 53.33% and 49.29%. Besides, in data set [6] (individual rats, cumulative, time 2 h after i.v. injection), the “Urinary recovery at 2 h” value was determined as 73.06%. For the same compound, the “Urinary recovery at 6 h” value in data set [6] (individual rats, cumulative, time 6 h after i.v. injection) is 81.95% and 89.05%. In data set [6] (individual rats, cumulative, time 9 h after i.v. injection), the “Urinary recovery at 9 h” value is given as 86.39%. Besides, the “Urinary recovery at 24 h” value in data set [6] (individual rats, cumulative, time 24 h after i.v. injection) is 93.3% and 106.6%.
Take `CC1(C)C(/C=C/C2=C(Oc3ccc(S(=O)(=O)O)cc3)C(=C/C=C3/N(CCCCS(=O)(=O)O)c4ccc(S(=O)(=O)[O-])cc4C3(C)C)/CCC2)=[N+](CCCCCC(=O)O)c2ccc(S(=O)(=O)O)cc21` [IRDye800CW, reference compound]: the “Transcutaneous elimination (clearance) curve, in words” value in data set [4] (healthy rats) was “no decay even at 90 min post-injection”. Further, the PPB in data set [1] (previous study of the authors) is listed as 41%.

Source of the values: article PMC5431684, “Zwitterionic near infrared fluorescent agents for noninvasive real-time transcutaneous assessment of kidney function” (Chemical Science, 2017).
